Holding throughout (assay type): cell-based
The test system of test [1] is Mycobacterium ranae (American Type Culture Collection number 110). As to the kind of experiment: MIC, Brain Heart Infusion broth. Particulars: M. ranae, 37° C., 48 hours.
The subject of test [2] is Escherichia coli ATCC 12014. As to the kind of experiment: MIC, Microdilution Broth Method (NCCLS). To be noted: ATCC12014. For orientation: Broth dilution looks for growth in wells or tubes with falling amounts of substance.
Test [3] has as its system Enterococcus faecalis (Vancomycin resistant strain). As to the kind of experiment: MIC, Microdilution Broth Method (NCCLS).
Test [4] deals with methicillin-resistant (MR) Staphylococcus aureus (American Type Culture Collection number 33591). Description: MIC, Nutrient Broth. To be noted: S. aureus (MR), 37° C., 20 hours.
The subject of test [5] is Helicobacter pylori (American Type Culture Collection number 43504). As to the kind of experiment: MIC, Columbia agar base with 7% sheep blood. Particulars: H. pylori, 35° C., 72 hours.
Test [6] deals with Micrococcus luteus ATCC 9341. As to the kind of experiment: MIC, Microdilution Broth Method (NCCLS). Particulars: ATCC9341.
The subject of test [7] is Staphylococcus aureus ATCC 25923 MSSA. Description: MIC, Microdilution Broth Method (NCCLS).
Test [8] deals with Staphylococcus aureus ATCC 29213 MSSA. Description: MIC, Microdilution Broth Method (NCCLS).
Test [9] relates to Staphylococcus epidermidis ATCC 27626. As to the kind of experiment: MIC, Microdilution Broth Method (NCCLS). To be noted: ATCC27626.
In test [10] the test system is Staphylococcus epidermidis ATCC 1228. Description: MIC, Microdilution Broth Method (NCCLS). To be noted: ATCC1228.
For test [11], the system named is Enterobacter cloacae ATCC 13047. As to the kind of experiment: MIC, Microdilution Broth Method (NCCLS). To be noted: ATCC13047.
The subject of test [12] is Staphylococcus aureus ATCC 6538 MSSA. Description: MIC, Microdilution Broth Method (NCCLS).
Test [13] concerns Escherichia coli ATCC 25922. Description: MIC, Microdilution Broth Method (NCCLS). To be noted: ATCC25922.
For test [14], the system named is Enterococcus faecalis ATCC 29212. As to the kind of experiment: MIC, Microdilution Broth Method (NCCLS).
The subject of test [15] is Klebsiella pneumoniae ATCC 13883. Description: MIC, Microdilution Broth Method (NCCLS). Particulars: ATCC13883.
The subject of test [16] is Enterobacter cloacae (American Type Culture Collection number 13047). Description: MIC, two fold serial dilution in 2xYT broth. To be noted: 37° C., 18 hours.
The subject of test [17] is Staphylococcus capitis (American Type Culture Collection number 35661). Description: MIC, two fold serial dilution in 2xYT broth. Particulars: 37° C., 18 hours.
Test [18] deals with E. coli strain DH5α. As to the kind of experiment: MIC, two fold serial dilution in 2xYT broth. Particulars: Escherichia coli, 37° C., 18 hours.
The subject of test [19] is Klebsiella pneumoniae (American Type Culture Collection number 13883). As to the kind of experiment: MIC, two fold serial dilution in 2xYT broth. Particulars: 37° C., 18 hours.
Test [20] concerns Pseudomonas aeruginosa (American Type Culture Collection number 9027). Description: MIC, Nutrient Broth. To be noted: P. aeruginosa, 37° C., 20 hours.
For test [21], the system named is Klebsiella pneumoniae (American Type Culture Collection number 10031). Description: MIC, Nutrient Broth. To be noted: K. pneumoniae, 37° C., 20 hours.
Test [22] concerns clinical isolates of aminoglycoside and erythromycin resistant Streptococcus pneumoniae. As to the kind of experiment: MIC, tryptic soy broth with 7% calf serum.
Test [23] deals with Pseudomonas aeruginosa ATCC 27853. As to the kind of experiment: MIC, Microdilution Broth Method (NCCLS). Particulars: ATCC27853.
In test [24] the test system is Morganella morganii ATCC 36030. Description: MIC, Microdilution Broth Method (NCCLS). Particulars: ATCC36030.
Setting [25] is: Enterococcus faecalis (Vancomycin resistant strain), Gram-positive table, read-out: MIC.
The mark [26] stands for this setting: Helicobacter pylori, read-out: MIC.
The mark [27] stands for this setting: Micrococcus luteus ATCC 9341, read-out: MIC.
Where [28] appears, read: Staphylococcus aureus ATCC 25923 MSSA, read-out: MIC.
The mark [29] stands for this setting: Staphylococcus aureus ATCC 29213 MSSA, read-out: MIC.
Where [30] appears, read: Staphylococcus epidermidis ATCC 27626, read-out: MIC.
Where [31] appears, read: Staphylococcus epidermidis ATCC 1228, read-out: MIC.
Where [32] appears, read: Staphylococcus aureus ATCC 6538 MSSA, read-out: MIC.
The mark [33] stands for this setting: ATCC29212, Enterococcus faecalis ATCC 29212, Gram-positive table, read-out: MIC.
[34] abbreviates: Pseudomonas aeruginosa, read-out: MIC.
[35] abbreviates: Streptococcus pneumoniae, S. pneumoniae, tryptic soy broth, 7% calf serum, 37° C., 48 hours, read-out: MIC.
The mark [36] stands for this setting: Enterococcus faecalis Vancomycin resistant strain (multi-resistant clinical isolate), read-out: MIC.
[37] abbreviates: ATCC29212, Enterococcus faecalis ATCC 29212, table of multi-resistant clinical isolate, read-out: MIC.
Setting [38] is: Enterococcus faecalis, ATCC29212.
[39] abbreviates: Enterococcus faecalis Vancomycin resistant strain (multi-resistant clinical isolate).
Where [40] appears, read: Enterococcus faecalis ATCC 29212, table of multi-resistant clinical isolate.

Converted amounts (≈) assume the structure as drawn. Where two headings read alike, the source gives them in different places.

Consider `CCCCC(CN(O)C=O)C(=O)N[C@H](C(=O)NC)C(C)(C)C` (single isomer, unassigned) [Compound 1, 2R (or S)-[(Formyl-hydroxy-amino)-methyl]-hexanoic acid-(2,2-dimethyl-1S-methyl-carbamoyl-propyl)-amide], for which the MIC was found to be 0.78 µg/mL (≈ 2.47 µM) in [1]; 4 µg/mL (≈ 12.7 µM) in test [2]; 128 µg/mL (≈ 406 µM) in [3] (setting [25]); 3.13 µg/mL (≈ 9.92 µM) in [4] (Staphylococcus aureus, read-out: MIC); 0.1 µg/mL (≈ 0.317 µM) in test [5] (setting [26]); 0.5 µg/mL (≈ 1.59 µM) in test [6] (setting [27]). Further, the MIC in test [7] (setting [28]) came out at 16 µg/mL (≈ 50.7 µM); in test [8] (setting [29]) it was 32 µg/mL (≈ 101 µM); in test [9] (setting [30]), 8 µg/mL (≈ 25.4 µM); in test [10] (setting [31]) it was 8 µg/mL (≈ 25.4 µM); in [11] it was 32 µg/mL (≈ 101 µM); in [12] (setting [32]) it was 8 µg/mL (≈ 25.4 µM). The MIC in [13] was found to be 4 µg/mL (≈ 12.7 µM); in test [14] (setting [33]), 32 µg/mL (≈ 101 µM); in [15] it was 16 µg/mL (≈ 50.7 µM); in test [16], 50 µM (≈ 15.8 µg/mL); in test [17] it was 100 µM (≈ 31.5 µg/mL); in [18], 12.5 µM (≈ 3.94 µg/mL). Also, the MIC in test [19] was 25 µM (≈ 7.89 µg/mL); in test [20] (setting [34]), 12.5 µg/mL (≈ 39.6 µM); in test [21] (Klebsiella pneumoniae, read-out: MIC) it was 0.2 µg/mL (≈ 0.634 µM); in test [22] (setting [35]), 50 µg/mL (≈ 159 µM); in [23] it was greater than 128 µg/mL; in [24] it was 128 µg/mL (≈ 406 µM).

For the compound `CC1(C)S[C@@H]2[C@H](NC(=O)[C@H](N)c3ccccc3)C(=O)N2[C@H]1C(=O)O` [Ampicillin, ampicillin], the minimum inhibitory concentration (MIC) was greater than 128 µg/mL in [3] (setting [36]); 0.1 µg/mL (≈ 0.286 µM) in test [5] (setting [26]); 0.5 µg/mL (≈ 1.43 µM) in [14] (setting [37]); 100 µg/mL (≈ 286 µM) in test [20] (setting [34]); 3.13 µg/mL (≈ 8.96 µM) in [22] (Streptococcus pneumoniae, 48 h).

Take `CC(C)(O/N=C(\C(=O)N[C@@H]1C(=O)N2C(C(=O)[O-])=C(C[n+]3ccccc3)CS[C@H]12)c1csc(N)n1)C(=O)O` [Ceftazidime]: the figures for the MIC in [3] (Enterococcus faecalis) and in test [14] (setting [38]) were greater than 128 µg/mL and 128 µg/mL (≈ 234 µM), respectively.

For `CCCCC(CN(O)C=O)C(=O)N[C@H](C(=O)N(C)C)C(C)(C)C` (stereo partly drawn) [Compound 3, 2R (or S)-[(Formyl-hydroxy-amino)-methyl]-hexanoic acid-(1S-dimethylcarbamoyl-2,2-dimethyl-propyl)-amide], the MIC turned out to be 4 µg/mL (≈ 12.1 µM) in test [2]; 8 µg/mL (≈ 24.3 µM) in test [3] (setting [25]); 8 µg/mL (≈ 24.3 µM) in [3] (setting [39]); 0.5 µg/mL (≈ 1.52 µM) in test [6] (setting [27]); 16 µg/mL (≈ 48.6 µM) in [7] (setting [28]); 8 µg/mL (≈ 24.3 µM) in test [8] (setting [29]). In addition, the minimal inhibitory concentration (MIC) in [9] (setting [30]) stood at 2 µg/mL (≈ 6.07 µM); in [10] (setting [31]) it was 4 µg/mL (≈ 12.1 µM); in test [11] it was 32 µg/mL (≈ 97.1 µM); in test [12] (setting [32]), 4 µg/mL (≈ 12.1 µM); in [13], 4 µg/mL (≈ 12.1 µM); in test [14] (setting [33]), 32 µg/mL (≈ 97.1 µM). Moreover, the MIC in test [14] (setting [40]) is 32 µg/mL (≈ 97.1 µM); in test [15], 16 µg/mL (≈ 48.6 µM); in test [23], 128 µg/mL (≈ 389 µM); in test [24] it was greater than 128 µg/mL.

Take `CN(C)C(=O)[C@@H](NC(=O)C(CC1CCCC1)CN(O)C=O)C(C)(C)C` (stereo partly drawn) [Cpd 4, 2R (or S)-[(Formyl-hydroxy-amino)-methyl]-3-cyclopentyl-propionic acid (1S-dimethyl-carbamoyl-2,2-dimethyl-propyl)-amide]: the MIC turned out to be 4 µg/mL (≈ 11.3 µM) in [3] (setting [36]) and 8 µg/mL (≈ 22.5 µM) in [14] (setting [37]).

Turning to `CC[C@H]1OC(=O)[C@H](C)[C@@H](O[C@H]2C[C@@](C)(OC)[C@@H](O)[C@H](C)O2)[C@H](C)[C@@H](O[C@@H]2O[C@H](C)C[C@H](N(C)C)[C@H]2O)[C@](C)(O)C[C@@H](C)C(=O)[C@H](C)[C@@H](O)[C@]1(C)O` [Erythromycin, erythromycin], the MIC was greater than 128 µg/mL in [3] (setting [36]), 2 µg/mL (≈ 2.73 µM) in test [14] (setting [37]) and 100 µg/mL (≈ 136 µM) in test [22] (setting [35]).

Turning to `C[C@@H](O)[C@H]1C(=O)N2C(C(=O)O)=C(SCCN=CN)C[C@H]12` [Imipenem], the values for the MIC in test [3] (setting [36]) and in test [14] (setting [37]) were greater than 128 µg/mL and 1 µg/mL (≈ 3.34 µM), respectively.

As for `CN[C@H](CC(C)C)C(=O)N[C@H]1C(=O)N[C@@H](CC(N)=O)C(=O)N[C@H]2C(=O)N[C@H]3C(=O)N[C@H](C(=O)N[C@H](C(=O)O)c4cc(O)cc(O)c4-c4cc3ccc4O)[C@H](O)c3ccc(c(Cl)c3)Oc3cc2cc(c3O[C@@H]2O[C@H](CO)[C@@H](O)[C@H](O)[C@H]2O[C@H]2C[C@](C)(N)[C@H](O)[C@H](C)O2)Oc2ccc(cc2Cl)[C@H]1O` [Vancomycin, reference compound], the MIC in test [3] (Enterococcus faecalis) was greater than 128 µg/mL; in test [3] (setting [39]), greater than 128 µg/mL; in test [6] (Micrococcus luteus), 0.25 µg/mL (≈ 0.173 µM); in test [7] (Staphylococcus aureus), 0.5 µg/mL (≈ 0.345 µM); in test [8] (Staphylococcus aureus), 0.25 µg/mL (≈ 0.173 µM); in test [9] (Staphylococcus epidermidis), 0.5 µg/mL (≈ 0.345 µM). For the same compound, the MIC in test [10] (Staphylococcus epidermidis) was found to be 0.5 µg/mL (≈ 0.345 µM); in test [12] (Staphylococcus aureus) it was 0.5 µg/mL (≈ 0.345 µM); in [14] (setting [40]), 1 µg/mL (≈ 0.69 µM); in test [14] (setting [38]) it was 1 µg/mL (≈ 0.69 µM).

For `CC1(C)S[C@@H]2[C@H](NC(=O)C(C(=O)O)c3ccccc3)C(=O)N2[C@H]1C(=O)O` (stereo partly drawn) [carbenicillin], the MIC was greater than 200 µM in test [16], less than 1.56 µM in test [17], 25 µM (≈ 9.46 µg/mL) in [18] and 200 µM (≈ 75.7 µg/mL) in test [19].

Take `O=C(N[C@H](CO)[C@H](O)c1ccc([N+](=O)[O-])cc1)C(Cl)Cl` [chloramphenicol]: the MIC in [16] worked out at 25 µM (≈ 8.08 µg/mL); in test [17] it was 6.25 µM (≈ 2.02 µg/mL); in [18], 3.12 µM (≈ 1.01 µg/mL); in test [19], 12.5 µM (≈ 4.04 µg/mL).

`NC[C@H]1O[C@H](O[C@H]2[C@H](O)[C@@H](O[C@H]3O[C@H](CO)[C@@H](O)[C@H](N)[C@H]3O)[C@H](N)C[C@@H]2N)[C@H](O)[C@@H](O)[C@@H]1O` [kanamycin]: the MIC is 50 µM (≈ 24.2 µg/mL) in test [16], less than 1.56 µM in [17], 12.5 µM (≈ 6.06 µg/mL) in [18] and 25 µM (≈ 12.1 µg/mL) in test [19].

gentamycin [reference compound]: the MIC in test [4] amounted to 0.78 µg/mL; in test [5] it was 0.78 µg/mL; in test [20], 0.78 µg/mL; in [21], 0.39 µg/mL; in test [22] (S. pneumoniae, tryptic soy broth, 7% calf serum, 37° C., 48 hours), 100 µg/mL.

A word on the MIC: it is the least concentration at which growth counts as inhibited.

Values taken from patent US6787522B2, “Antibacterial agents” (British Biotech Pharmaceuticals, priority 1998, dated 2004).
